Reference: ChEMBL document CHEMBL2346569, “Synthesis and biological evaluation of pyridazine derivatives as novel HIV-1 NNRTIs” (Bioorg Med Chem, 2013)

Assays:
[1] = test system: Human immunodeficiency virus 1; test: Antiviral activity against HIV1 harboring reverse transcriptase L100I/K103N double mutant infected in human MT4 cells assessed as protection against virus-induced cytopathicity after 5 days by MTT assay; type: functional, organism-based; conditions: Human immunodeficiency virus 1, MT4, 120 h
[2] = test system: Human immunodeficiency virus 1; test: Antiviral activity against wild type HIV1 LAI infected in human MT4 cells assessed as protection against virus-induced cytopathicity after 5 days by MTT assay; type: functional, organism-based; conditions: Human immunodeficiency virus 1, LAI, MT4, 120 h
[3] = test system: Human immunodeficiency virus 1; test: Antiviral activity against HIV1 harboring reverse transcriptase K103N/Y181C double mutant infected in human MT4 cells assessed as protection against virus-induced cytopathicity after 5 days by MTT assay; type: functional, organism-based; conditions: Human immunodeficiency virus 1, MT4, 120 h
[4] = test system: Human immunodeficiency virus 1; test: Antiviral activity against HIV1 RES056 harboring reverse transcriptase K103N/Y181C double mutant infected in human MT4 cells assessed as protection against virus-induced cytopathicity after 5 days by MTT assay; type: functional, organism-based
[5] = test system: Human immunodeficiency virus 2; test: Antiviral activity against HIV2 ROD infected in human MT4 cells assessed as protection against virus-induced cytopathicity after 5 days by MTT assay; type: functional, organism-based, ISOLATE ROD
[6] = test system: Human immunodeficiency virus 1; test: Antiviral activity against wild type HIV1 3B infected in human MT4 cells assessed as protection against virus-induced cytopathicity after 5 days by MTT assay; type: functional, organism-based; conditions: Human immunodeficiency virus 1, 3B, MT4, 120 h
[7] = Cytotoxicity against mock-infected human MT4 cells assessed as cell viability after 5 days by MTT assay; type: cell-based
[8] = Selectivity index, ratio of CC50 for mock-infected human MT4 cells to EC50 for wild type HIV1 3B
[9] = biological target: Human immunodeficiency virus type 1 reverse transcriptase (Human immunodeficiency virus 1, UniProt Q72547); test: Inhibition of HIV 1 reverse transcriptase assessed as incorporation of biotin-dUTP into poly rA.dT by ELISA

Structure (SMILES)	EC50 [1]	EC50 [2]	EC50 [3]	EC50 ([4]; mt4)	EC50 ([5]; mt4)	EC50 [6]	CC50 at 120 h [7]	selectivity ratio ([8]; mock-infected MT4 cells)	IC50 [9]	EC50 ([4]; Human immunodeficiency virus 1, RES056, MT4, 120 h, read-out: EC50)	EC50 ([5]; Human immunodeficiency virus 2, ISOLATE ROD, MT4, 120 h, read-out: EC50)	selectivity ratio ([8]; mt4)
Cc1cc(C#N)cc(C)c1Oc1nc(Nc2ccc(C#N)cc2)c(=O)n(C)c1C	0.158 µM	0.006 µM	0.061 µM									
Cc1cc(C#N)cc(C)c1Oc1ccc(=O)n(Nc2ccc(C#N)cc2)n1		1.75 µM										
Cc1ccc(Nc2cc(Oc3c(C)cc(C)cc3C)c(=O)[nH]n2)cc1				Not Active	Not Active	1.55 µM	185 µM	119				
Cc1cc(C)c(Oc2cc(Nc3ccc([N+](=O)[O-])cc3)n[nH]c2=O)c(C)c1				Not Active	Not Active	5.08 µM	37.1 µM	7				
COc1ccc(Nc2cc(Oc3c(C)cc(C)cc3C)c(=O)[nH]n2)cc1				Not Active	Not Active	1.59 µM	5.88 µM	4				
Cc1cc(C)c(Oc2cc(Nc3ccc(C#N)cc3)n[nH]c2=O)c(C)c1				Not Active	Not Active	0.26 µM	47 µM	180				
N#Cc1ccc(Nc2cc(Oc3c(Cl)cc(Cl)cc3Cl)c(=O)[nH]n2)cc1				Not Active	Not Active	≥ 9.2 µM	35 µM					
N#Cc1ccc(Nc2cc(Oc3c(Br)cc(Br)cc3Br)c(=O)[nH]n2)cc1				Not Active	Not Active	0.63 µM	139 µM	221				
Cc1cc(Br)c(Oc2cc(Nc3ccc(C#N)cc3)n[nH]c2=O)c(Br)c1				Not Active	Not Active	0.21 µM	154 µM	733				
Cc1cc(Br)cc(C)c1Oc1cc(Nc2ccc(C#N)cc2)n[nH]c1=O				Not Active	Not Active	1.19 µM	19.5 µM	16				
Cc1cc(C)c(Oc2cc(Nc3cccc(Cl)c3)n[nH]c2=O)c(C)c1				Not Active	Not Active	14.4 µM	119 µM	8				
Cc1cccc(C)c1Oc1cc(Nc2ccc(C#N)cc2)n[nH]c1=O				Not Active	Not Active	1.9 µM	205 µM	108				
Cc1cc(C#N)cc(C)c1Oc1cc(Nc2ccc(C#N)cc2)n[nH]c1=O				Not Active	Not Active	2.83 µM	272 µM	96				
Cc1cc(C)c(Oc2cc(Nc3ccc(C#N)cc3)nn(C)c2=O)c(C)c1				Not Active	Not Active	1.16 µM	143 µM	123				
Cc1cc(C)c(Oc2cc(N(C)c3ccc(C#N)cc3)nn(C)c2=O)c(C)c1				Not Active	Not Active	3.36 µM	≥ 246 µM	≥ 73				
Cc1cc(C)c(Oc2cc(Nc3ccc(Cl)cc3)nnc2Cl)c(C)c1				Not Active	Not Active	0.139 µM	210 µM	1510				

Structure (SMILES)	EC50 [1]	EC50 [2]	EC50 [3]	EC50 ([4]; mt4)	EC50 ([5]; mt4)	EC50 [6]	CC50 at 120 h [7]	selectivity ratio ([8]; mock-infected MT4 cells)	IC50 [9]	EC50 ([4]; Human immunodeficiency virus 1, RES056, MT4, 120 h, read-out: EC50)	EC50 ([5]; Human immunodeficiency virus 2, ISOLATE ROD, MT4, 120 h, read-out: EC50)	selectivity ratio ([8]; mt4)
Cc1ccc(Nc2cc(Oc3c(C)cc(C)cc3C)c(Cl)nn2)cc1				Not Active	Not Active	0.201 µM	244 µM	1210				
Cc1cc(C)c(Oc2cc(Nc3ccc([N+](=O)[O-])cc3)nnc2Cl)c(C)c1				Not Active	Not Active	> 0.94 µM	0.94 µM	< 1				
Cc1cc(C)c(Oc2cc(Nc3ccc(C#N)cc3)nnc2Cl)c(C)c1				Not Active	Not Active	0.079 µM	36.3 µM	461				
N#Cc1ccc(Nc2cc(Oc3c(Cl)cc(Cl)cc3Cl)c(Cl)nn2)cc1				Not Active	Not Active	0.155 µM	18.6 µM	120				
N#Cc1ccc(Nc2cc(Oc3c(Br)cc(Br)cc3Br)c(Cl)nn2)cc1				Not Active	Not Active	0.18 µM	22.3 µM	124				
Cc1cc(Br)c(Oc2cc(Nc3ccc(C#N)cc3)nnc2Cl)c(Br)c1				Not Active	Not Active	0.034 µM	19.2 µM	565	3.18 µM			
Cc1cc(Br)cc(C)c1Oc1cc(Nc2ccc(C#N)cc2)nnc1Cl				Not Active	Not Active	0.4 µM	84.1 µM	210				
COc1cccc(OC)c1Oc1cc(Nc2ccc(C#N)cc2)nnc1Cl				Not Active	Not Active	> 2.9 µM	2.9 µM	< 1				
N#Cc1ccc(Nc2cc(Oc3c(Cl)cccc3Cl)c(Cl)nn2)cc1				Not Active	Not Active	0.22 µM	93.1 µM	423				
Cc1cc(C#N)cc(C)c1Oc1cc(Nc2ccc(C#N)cc2)nnc1Cl				Not Active	Not Active	0.144 µM	53.2 µM	369				
Cc1cccc(C)c1Oc1cc(Nc2ccc(C#N)cc2)nnc1Cl				Not Active	Not Active	0.54 µM	290 µM	537				
Cc1cc(C)c(Oc2cc(Nc3ccc(Cl)cc3)n[nH]c2=O)c(C)c1				Not Active	Not Active	0.78 µM	5.98 µM	8				
CC(C)Nc1cccnc1N1CCN(C(=O)c2cc3cc(NS(C)(=O)=O)ccc3[nH]2)CC1 [DELAVIRDINE]				Not Active	Not Active	0.042 µM	> 43.4 µM	> 1030				
O=C1Nc2ccc(Cl)cc2[C@@](C#CC2CC2)(C(F)(F)F)O1 [EFAVIRENZ]						0.007 µM	> 2 µM			0.59 µM	0.02 µM	> 286
Cc1cc(C#N)cc(C)c1Oc1nc(Nc2ccc(C#N)cc2)nc(N)c1Br [ETRAVIRINE]					Not Active		> 4.6 µM					
Cc1ccnc2c1NC(=O)c1cccnc1N2C1CC1 [NEVIRAPINE]				Not Active	Not Active		> 14.9 µM					
